How the values were obtained:
Test in all cases: relative viability vs DMSO control (72 h) (fraction); higher = more viable cells
SW872 = test system: SW872
How it was run: (§1)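 After seeding at densities set for 80–90% confluence in 384-well plates, sarcoma cell lines waited 24 h before 2.5 µl of serially diluted compound was added. Source plates held 10 mM down to 0.0002 mM. Plates were incubated 72 h at 37 °C with 5% CO2, with 0.1% DMSO vehicle and a 5 µM positive control, and relative viability was taken from ATPLite as percent growth averaged over up to triplicate wells, with 1 set as full and 0 as none.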

KHOS-240S = test system: KHOS-240S
How it was run: as §1

SK-LMS-1 = test system: SK-LMS-1
How it was run: as §1

SW1353 = test system: SW1353
How it was run: as §1

RD-ES = test system: RD-ES
How it was run: as §1

HT1080 = test system: HT1080
How it was run: as §1

RD = test system: RD
How it was run: as §1

SYO-1 = test system: SYO-1
How it was run: as §1

G401 = test system: G401
How it was run: as §1

HS729 = test system: HS729
How it was run: as §1

SW684 = test system: SW684
How it was run: as §1

KHOS-NP = test system: KHOS-NP
How it was run: as §1

CC(=O)c1c(C)c2cnc(Nc3ccc(N4CCNCC4)cn3)nc2n(C2CCCC2)c1=O [Palbociclib]
Settings | relative viability
G401, 0.00017 µM | 1.04
G401, 0.00051 µM | 1.03
G401, 0.00152 µM | 1.016
G401, 0.00457 µM | 0.989
G401, 0.01372 µM | 0.962
G401, 0.04115 µM | 0.938
G401, 0.1235 µM | 0.882
G401, 0.3704 µM | 0.856
G401, 1.111 µM | 0.833
G401, 3.333 µM | 0.742
G401, 10 µM | 0.293
HS729, 0.00017 µM | 1.05
HS729, 0.00051 µM | 1.02
HS729, 0.00152 µM | 1.06
HS729, 0.00457 µM | 1.01
HS729, 0.01372 µM | 1.05
HS729, 0.04115 µM | 0.965
HS729, 0.1235 µM | 0.987
HS729, 0.3704 µM | 0.984
HS729, 1.111 µM | 0.844
HS729, 3.333 µM | 0.849
HS729, 10 µM | 0.933
HT1080, 0.00017 µM | 1.09
HT1080, 0.00051 µM | 1.1
HT1080, 0.00152 µM | 1.11
HT1080, 0.00457 µM | 1.08
HT1080, 0.01372 µM | 1.13
HT1080, 0.04115 µM | 1.12
HT1080, 0.1235 µM | 1.16
HT1080, 0.3704 µM | 1.16
HT1080, 1.111 µM | 1.06
HT1080, 3.333 µM | 0.973
HT1080, 10 µM | 0.44
KHOS-240S, 0.00017 µM | 1.07
KHOS-240S, 0.00051 µM | 1.07
KHOS-240S, 0.00152 µM | 1.08
KHOS-240S, 0.00457 µM | 1.07
KHOS-240S, 0.01372 µM | 1.07
KHOS-240S, 0.04115 µM | 1.01
KHOS-240S, 0.1235 µM | 0.945
KHOS-240S, 0.3704 µM | 0.843
KHOS-240S, 1.111 µM | 0.734
KHOS-240S, 3.333 µM | 0.681
KHOS-240S, 10 µM | 0.607
KHOS-NP, 0.00017 µM | 1.12
KHOS-NP, 0.00051 µM | 1.11
KHOS-NP, 0.00152 µM | 1.124
KHOS-NP, 0.00457 µM | 1.1
KHOS-NP, 0.01372 µM | 1.13
KHOS-NP, 0.04115 µM | 1.12
KHOS-NP, 0.1235 µM | 1.11
KHOS-NP, 0.3704 µM | 1.1
KHOS-NP, 1.111 µM | 1.07
KHOS-NP, 3.333 µM | 0.902
KHOS-NP, 10 µM | 0.742
RD, 0.00017 µM | 1.03
RD, 0.00051 µM | 1.08
RD, 0.00152 µM | 1.11
RD, 0.00457 µM | 1.09
RD, 0.01372 µM | 1.08
RD, 0.04115 µM | 1.09
RD, 0.1235 µM | 1.05
RD, 0.3704 µM | 1.01
RD, 1.111 µM | 0.968
RD, 3.333 µM | 0.905
RD, 10 µM | 0.276
RD-ES, 0.00017 µM | 0.959
RD-ES, 0.00051 µM | 0.9884
RD-ES, 0.00152 µM | 0.98
RD-ES, 0.00457 µM | 0.931
RD-ES, 0.01372 µM | 0.917
RD-ES, 0.04115 µM | 0.835
RD-ES, 0.1235 µM | 0.735
RD-ES, 0.3704 µM | 0.652
RD-ES, 1.111 µM | 0.603
RD-ES, 3.333 µM | 0.563
RD-ES, 10 µM | 0.18
SK-LMS-1, 0.00017 µM | 1.05
SK-LMS-1, 0.00051 µM | 1.04
SK-LMS-1, 0.00152 µM | 1.08
SK-LMS-1, 0.00457 µM | 1.05
SK-LMS-1, 0.01372 µM | 1.06
SK-LMS-1, 0.04115 µM | 0.97
SK-LMS-1, 0.1235 µM | 0.998
SK-LMS-1, 0.3704 µM | 0.961
SK-LMS-1, 1.111 µM | 1
SK-LMS-1, 3.333 µM | 1.06
SK-LMS-1, 10 µM | 0.798
SW684, 0.00017 µM | 1.19
SW684, 0.00051 µM | 1.2
SW684, 0.00152 µM | 1.24
SW684, 0.00457 µM | 1.241
SW684, 0.01372 µM | 1.28
SW684, 0.04115 µM | 1.21
SW684, 0.1235 µM | 1.18
SW684, 0.3704 µM | 1.11
SW684, 1.111 µM | 1.05
SW684, 3.333 µM | 0.933
SW684, 10 µM | 0.7226
SW872, 0.00017 µM | 1.11
SW872, 0.00051 µM | 1.1
SW872, 0.00152 µM | 1.07
SW872, 0.00457 µM | 1.09
SW872, 0.01372 µM | 1.07
SW872, 0.04115 µM | 1.03
SW872, 0.1235 µM | 0.968
SW872, 0.3704 µM | 0.884
SW872, 1.111 µM | 0.83
SW872, 3.333 µM | 0.78
SW872, 10 µM | 0.726
SW1353, 0.00017 µM | 1.05
SW1353, 0.00051 µM | 1.06
SW1353, 0.00152 µM | 1.05
SW1353, 0.00457 µM | 1.04
SW1353, 0.01372 µM | 1.01
SW1353, 0.04115 µM | 0.955
SW1353, 0.1235 µM | 0.9442
SW1353, 0.3704 µM | 0.9
SW1353, 1.111 µM | 0.859
SW1353, 3.333 µM | 0.87
SW1353, 10 µM | 0.425
SYO-1, 0.00017 µM | 1.01
SYO-1, 0.00051 µM | 1
SYO-1, 0.00152 µM | 1.01
SYO-1, 0.00457 µM | 0.9555
SYO-1, 0.01372 µM | 0.903
SYO-1, 0.04115 µM | 0.8
SYO-1, 0.1235 µM | 0.702
SYO-1, 0.3704 µM | 0.649
SYO-1, 1.111 µM | 0.621
SYO-1, 3.333 µM | 0.523
SYO-1, 10 µM | -0.000667

Reference: the supplement of paper PMC10883282
